The values below come from a melting point compilation (Tetko et al.; mined from patent text by program, amines drawn as free bases though some values may be those of a salt).

Turning to `CCCCc1nc(Cl)c(CC#N)n1Cc1ccc(C#N)cc1`, the melting point (in general, the temperature of the solid-liquid transition) is 110 to 113 °C. `COCCOC(=O)C1=C(C(F)F)NC(C)=C(C(=O)OC(C)C)C1c1cccc(Cl)c1Cl` (centres undefined) returned a melting point of 127 to 128 °C. `CCCOc1cc2[nH]c(=O)[nH]c(=O)c2cc1OC` registered a melting point of 259 to 261 °C.

With `O=C(O)c1ccc(CN2C(=O)C3CCCC3=Nc3ccc(Cl)cc32)cc1` (centres undefined), the melting point lay within 251 to 255 °C. `CCn1ncc(C(=O)c2ccc(S(C)(=O)=O)c(-c3ccccc3C)c2C)c1O`: the melting point fell in the range of 179 to 180 °C.

`O=C(O)C(Cc1ccc(OCCN2c3ccccc3Oc3ccccc32)cc1)C(=O)O` came in with a melting point of 303 to 307 °C. `COc1ccc2c(c1)c(CC(C)NC(=O)C(F)(F)F)c1n2CCC1` (racemic): the melting point is 131 to 133 °C. In turn, `Nc1nc(OC(F)F)cc(OC(F)F)n1` had a melting point of 67 to 69 °C. In turn, `Clc1cc(Cc2c(Cl)cccc2Cl)nc(Cl)n1` gave a melting point of 106 to 107 °C.

`C=CCNc1nc(C)c(C(=O)c2ccc(Cl)c([N+](=O)[O-])c2)s1` displayed a melting point of 154 to 156 °C. `Cc1cn(C2CC(O)C(CNC(=O)c3ccc(Br)cc3)O2)c(=O)[nH]c1=O` (centres undefined) showed a melting point of 250 to 252 °C. Next, `Cc1ccc(Nc2ccccn2)c(C)c1[N+](=O)[O-]`: 178 to 179 °C.

As to `CNC(=S)c1cnn(-c2cccc(Cl)c2)c1Cl`, the melting point lay within 128 to 130 °C.

Turning to `O=C(CCCCCBr)NC(C(=O)c1ccc(Cl)cc1)c1ccc(Cl)cc1` (centres undefined), the melting point came to 105 °C. Consider `CC(=O)Nc1ccc(S(=O)(=O)NC23CC4CC(CC(C4)C2)C3)cc1`, for which the melting point was determined as 290 °C. Compound `Cc1ccccc1NC(=O)Nc1ccc(C(=O)N2CCCCc3sccc32)cc1` displayed a melting point of 179 to 182 °C.

For the compound `COc1ncc(Cl)cc1C1(O)CCN(CC23CC(c4ccccc42)c2ccccc23)CC1`, the melting point amounted to 195 °C.

As for `Cc1ccc(C)n1-c1nc(S(=O)(=O)Nc2cccc(Cl)c2Cl)n[nH]1`, the melting point worked out at 185 °C. Compound `Cn1nnc2ccc(C(c3cccs3)n3ccnc3)cc21` (centres undefined) returned a melting point of 157 °C. On to `CCOC(=O)C(Cc1ccc(O)cc1)C(=O)OCC`, for which the melting point worked out at 45 °C. In turn, `Cc1c(C(=O)NC2CCN(Cc3ccccc3)CC2)c2cc(F)ccc2n1Cc1ccccc1` gave a melting point of 194 to 195 °C. `Cc1cc(-c2sc(N3CCN(Cc4cccc(C(F)(F)F)c4)C3=O)nc2C)n[nH]1` returned a melting point of 163 to 164 °C. Take `Oc1ccc(N2CCN(CC[C@H]3CC[C@H](Nc4ncccn4)CC3)CC2)cc1`: the melting point lay within 192 to 194 °C.

For the compound `O=C1C(CBr)=C(CBr)C(=O)C(CBr)=C1CBr`, the melting point lay in the range of 169 to 172 °C. For `O=S1(=O)N=C(c2ccccc2)c2ccccc21`, the melting point was determined as 118 °C.

For `Cn1ncc(N)c1NCCO`, the melting point was 94 to 97 °C.

The compound `Cc1nc(NC(=N)N)sc1C=O` showed a melting point of 176 to 178 °C. In turn, `Fc1ccc2nccc(Cl)c2c1` returned a melting point of 71 to 74 °C. Regarding `CCCCCCCCCCCCc1ccc(NC(C)=O)cc1`, the melting point was in the range of 100 to 102 °C. The same measure for `Cc1cc(Oc2cccc(C(F)(F)F)c2)nn1C(=O)Nc1cc(OC2CCCC2)c(Cl)cc1F`: 81 to 83 °C; for `CC1(C)CNS(=O)(=O)N1`: 80 to 83 °C; for `COc1ccc(C2Sc3cc(Oc4ccccc4)ccc3NC(=O)C2O)cc1Cl` (centres undefined): 262 to 264 °C. Take `CCOC(=O)C[C@H]1O[C@H](c2ccc(O)cc2OC)c2cc(Cl)ccc2N(CC(C)(C)C)C1=O` (relative stereo): the melting point was 197 to 199 °C. In the case of `Cc1cc2c(=O)c(N3CCC(O)(c4ccc(F)cc4)CC3)coc2cc1OCc1ccccc1`, the melting point lay in the range of 245 to 246 °C. For `Nc1cccc(CNC(=O)c2[nH]c3ccc(Cl)cc3c2S(=O)(=O)c2ccccc2)c1`, the melting point lay in the range of 247 to 249 °C. For `N#Cc1c[nH]c2cc(F)c(OCc3ccccc3)cc2c1=O`, the melting point is above 250 °C. The same measure for `Cc1cccc(-c2[nH]c(C3CC3)nc2-c2cccc(-c3ccc(C(=O)NC4CCOCC4)cc3)c2)n1`: 127 to 128 °C; for `CC(NC(=O)OC(C)(C)C)C(=O)NC1CCN(Cc2ccccc2)C1` (centres undefined): 83 to 85 °C. `O=C1N[C@H](Cc2ccc(C(F)(F)F)cc2)[C@H](c2ccc(Oc3ccccc3)cc2)O1` (racemic) yielded a melting point of 110 to 111 °C. `CCCNC(=O)C1Cc2[nH]c3ccc(OC)cc3c2C1` (centres undefined): the melting point is 141 to 143 °C.

Turning to `CC(C)(C)OC(=O)ON=C(C#N)c1ccc(Cl)cc1`, the melting point lay within 91 to 92 °C. Next, `CC(COc1ccc(CC(N)=O)cc1Cl)NCC(O)c1cccc(Cl)c1` (centres undefined): 99 to 101 °C; `CCNC(=O)c1c([Si](C)(C)C)sc2ccccc12`: 121 to 124 °C; `Cn1c(=O)c(-c2ccc(Cl)cc2Cl)cc2c3cc(C=NO)ccc3n(C)c21`: 287 to 290 °C. In turn, `CC(=O)OC1CSC(Oc2cncc(-c3c(C)nn(C)c3C)c2)C(OC(C)=O)C1OC(C)=O` (centres undefined) returned a melting point of 166 °C. Compound `Nc1ccc(C=C2SC(=O)NC2=O)cc1` returned a melting point of 265 to 270 °C. The same measure for `O=C(Nc1cccc(Cc2nnn[nH]2)c1)C(F)(F)C(F)(F)C(F)(F)F`: 148 to 151 °C. For `COCCc1nc2c(N)nc3ccccc3c2n1CCCNS(=O)(=O)c1ccccc1`, the melting point is 149 to 151 °C. For `Cc1ccc(COc2cccc(/C=C/c3ccc(CN4CCCCC4)cc3)c2)cc1`, the melting point lay within 87 to 88 °C. Next, `Nc1nnc(C(CCc2ccccc2)NC(=O)c2ccc3[nH]c(-c4ccncc4)nc3c2)o1` (centres undefined): 160 °C; `CC(=O)N(OC(=O)NC(C)(C)C)C(=O)NC(C)(C)C`: 111 to 113 °C. Consider `CC1(C)c2ccccc2Oc2ncccc21`, for which the melting point lay in the range of 72 to 73 °C. The same measure for `CCS(=O)(=O)Nc1cc(-n2c(=O)cc(C(F)(F)F)n(N)c2=O)c(F)cc1C#N`: 190 °C; for `COc1nc2cc([N+](=O)[O-])c(C)c(C(=O)N(C)C)c2nc1OC`: 138 to 141 °C; for `Cc1ccccc1-n1ccc2c(=O)[nH]c3c(C)cccc3c21`: 226 to 232 °C.

For the compound `NC(=O)NN=Cc1ccc(Oc2ccc3c(c2)CCCC3)cc1`, the melting point was 202 to 204 °C. Next, `Cc1ccc(Nc2nc(-c3cccc(C#N)c3)cs2)nc1`: 268 to 272 °C; `CC1(C)CCC(C)(C)c2cc(-c3cc(-c4ccc(C(=O)O)cc4)ccc3OCCCO)ccc21`: 317 °C.

Compound `N#CCC1CN(Cc2ccccc2)CCO1` (centres undefined) gave a melting point of 62 °C. In turn, `CC(C)(c1ccc(O)cc1)c1ccc(O)c(Cl)c1` returned a melting point of 106 to 107 °C. Consider `O=C(O)c1cnccc1C(=O)c1ccc(F)cc1`, for which the melting point lay within 231 to 232 °C.

Compound `CC(=O)Nc1ccc(OCCN2CCc3ccc([N+](=O)[O-])cc3CC2)cc1C` displayed a melting point of 132 to 134 °C. Compound `CC(=O)Nc1nc(CCc2ccc(NC(=N)N)cc2)c(Cc2ccc(S(C)(=O)=O)cc2)s1` came in with a melting point of 228 to 230 °C. In turn, `C=C[C@@H]1Oc2ccccc2[C@H]1CC(=O)O` (relative stereo) displayed a melting point of 79 to 81 °C.
